Consider 24 compounds from patent US20260042753A1 (Merck Patent GmbH, priority 2019, published 2026).

Each structure is given as a SMILES string. Read-outs that look alike come from different tables or passages of the source.

Test [1] concerns the target mutant cKIT (560-576 and V654A) in GIST430/654 cell line (Homo sapiens (Human), UniProt P10721, DEL560-576/V654A). Kind of test: Cellular testing of cKIT mutant inhibitors: phospho-Y307-cKIT Luminex assay in GIST430/654 cells. It is filed as cell-based. The settings on record: read-out: GIST 430/654 IC50. Here is the method:
Assay Principle for Cellular Testing of cKIT Mutant Inhibitors
The GIST430/654 cell line expressing mutated constitutively active cKIT receptor tyrosine kinase ([…]560-576 and V654A) was employed for assessing cellular potency of compounds. Cellular activity of mutant cKIT was determined by the degree of cKIT autophosphorylation at tyrosine 307 using a Luminex-based bead assay. GIST430/654 cells were plated with 25,000 cells per well of a 96-well plate in 100 μl medium (85% IMDM/15% FCS supplemented with 100 nM Imatinib). At the following day compounds were added in a serial dilution for 45 min. Then, cells were lysed with 90 μl lysis buffer (20 mM Hepes pH 7.5, 200 mM NaCl, 1.5 mM MgCl2×6H2O, 0.4 mM EDTA, 1% Triton-X-100, 1% Phosphatase-Inhibitor II, 20 mM D-Glycerolphosphat, 0.1% Protease-Inhibitor Cocktail III, 0.01% Benzonase) und lysates were cleared by centrifugation through a 96-well filter plate (0.65 μm). Samples were incubated with Luminex-beads which were coupled with an anti-total cKIT antibody overnight at 4° C. under gentle agitation. For detection of phospho-Y307-cKIT a phosphospecific antibody and a species-specific PE-labelled secondary antibody were added. The amount of phospho-Y307-cKIT was determined in a Luminex 200 instrument measuring 100 events per well within 60 seconds.
Counts from samples treated with compounds were calculated as percent of control from solvent treated (0.3% DMSO) samples. Dose-response curves were fitted and IC50 values were determined using Genedata Screener software.

In another test the target is c-Kit(V654A) (Homo sapiens, UniProt P10721, V654A). Kind of test: c-Kit(V654A) assay. It is filed as biochemical. The procedure:
c-Kit(V654A) (N-terminal GST-tagged, recombinant human c-Kit, amino acids 544-end containing the V654A mutation) is incubated with 8 mM MOPS pH 7.0, 0.2 mM EDTA, 250 μM GGMEDIYEFMGGKKK, 10 mM MgAcetate and [gamma-33P-ATP](specific activity approx. 500 cpm/pmol, concentration 200 μM). The reaction is initiated by the addition of the MgATP mix. After incubation for 40 minutes at room temperature, the reaction is stopped by the addition of 3% phosphoric acid solution. 10 μL of the reaction is then spotted onto a P30 filtermat and washed three times for 5 minutes in 75 mM phosphoric acid and once in methanol prior to drying and scintillation counting.

The mark [2] stands for this setting: Table 1, cKIT autophosphorylation, compounds 45 min.
The mark [3] stands for this setting: Table 2, corresponding triazole derivatives.

Sequence of mutant cKIT (560-576 and V654A) in GIST430/654 cell line (P10721 other isoform, or with tags, fused parts or gaps V654A/del 1-25/del 560-576 limits assumed): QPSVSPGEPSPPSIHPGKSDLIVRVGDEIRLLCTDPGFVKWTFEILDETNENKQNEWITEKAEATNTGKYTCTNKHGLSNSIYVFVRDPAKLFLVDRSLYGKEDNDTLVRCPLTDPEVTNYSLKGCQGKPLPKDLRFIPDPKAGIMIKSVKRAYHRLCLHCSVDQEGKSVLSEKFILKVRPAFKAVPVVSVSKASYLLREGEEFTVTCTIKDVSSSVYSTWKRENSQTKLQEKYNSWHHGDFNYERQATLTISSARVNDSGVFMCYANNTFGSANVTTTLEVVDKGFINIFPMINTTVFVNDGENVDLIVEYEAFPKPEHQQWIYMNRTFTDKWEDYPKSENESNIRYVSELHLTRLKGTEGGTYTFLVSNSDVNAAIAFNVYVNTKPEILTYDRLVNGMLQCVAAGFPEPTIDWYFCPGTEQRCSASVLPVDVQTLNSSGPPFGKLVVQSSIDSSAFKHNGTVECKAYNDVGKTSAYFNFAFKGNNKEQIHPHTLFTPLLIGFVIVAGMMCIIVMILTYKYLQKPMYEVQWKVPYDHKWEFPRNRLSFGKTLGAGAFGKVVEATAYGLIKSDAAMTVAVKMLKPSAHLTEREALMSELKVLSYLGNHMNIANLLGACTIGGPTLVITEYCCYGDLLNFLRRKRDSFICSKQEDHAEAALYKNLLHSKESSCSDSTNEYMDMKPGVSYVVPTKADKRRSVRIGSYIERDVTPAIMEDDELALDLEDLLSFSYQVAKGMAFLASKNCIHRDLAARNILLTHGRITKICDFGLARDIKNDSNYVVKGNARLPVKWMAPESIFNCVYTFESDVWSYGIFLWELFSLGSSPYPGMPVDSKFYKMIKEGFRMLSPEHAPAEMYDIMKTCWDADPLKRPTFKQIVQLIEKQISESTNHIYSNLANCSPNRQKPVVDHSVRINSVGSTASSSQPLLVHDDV

With `COCCOc1cc2[nH]nc(-c3cc(-c4ccc(C(=O)N5CC[C@H]5C(C)(C)O)nc4)no3)c2cc1F` [A118, (5-{5-[5-fluoro-6-(2-methoxy-ethoxy)-1H-indazol-3-yl]-isoxazol-3-yl}-pyridin-2-yl)-[(S)-2-(1-hydroxy-1-methyl-ethyl)-azetidin-1-yl]-methanone], the IC50 was 0.64 µM in test [1] (setting [2]) and 0.0071 µM at c-Kit(V654A) (Table 1, 200 μM ATP).
For `COCCOc1cc2[nH]nc(-c3cn(-c4ccc(C5CCNCC5(C)C)cc4)nn3)c2cc1F` (stereo not drawn) [reference compound], the figures for the IC50 (in test [1] (setting [3]); against c-Kit(V654A) (setting [3])) were 0.12 µM and 0.021 µM, respectively.
In the case of `COCCOc1cc2[nH]nc(-c3cc(-c4ccc(S(C)(=N)=O)cc4)no3)c2cc1F` (stereo not drawn) [A226, (4-{5-[5-fluoro-6-(2-methoxyethoxy)-1H-indazol-3-yl]-1,2-oxazol-3-yl}phenyl)(imino)methyl-lambda6-sulfanone], the IC50 in test [1] (setting [2]) came to 0.15 µM; against c-Kit(V654A) (Table 1, 200 μM ATP), 0.002 µM.
Consider `COCCOc1cc2[nH]nc(-c3cc(-c4ccc(C(=O)N5CCN(C6COC6)CC5C)cc4)no3)c2cc1F` (stereo not drawn) [A174, 5-fluoro-6-(2-methoxyethoxy)-3-(3-{4-[2-methyl-4-(oxetan-3-yl)piperazine-1-carbonyl]phenyl}-1,2-oxazol-5-yl)-1H-indazole], for which the IC50 in test [1] (setting [2]) was 0.035 µM; against c-Kit(V654A) (Table 1, 200 μM ATP), 0.0013 µM.
Taken in the same sequence, the figures for `COCCOc1cc2[nH]nc(-c3cc(-c4ccc(C(=O)N5C[C@H]6COC[C@H]6C5)c(C)c4)no3)c2cc1F` [A70, (4-{5-[5-fluoro-6-(2-methoxy-ethoxy)-1H-indazol-3-yl]-isoxazol-3-yl}-2-methyl-phenyl)-(cis)-tetrahydro-furo[3,4-c]pyrrol-5-yl-methanone] were 0.081 µM and 0.0021 µM.
With `COCCOc1cc2[nH]nc(-c3cc(-c4ccc(C(=O)N5CCC6(COC6)C5)cc4)no3)c2cc1F` [A158, 5-fluoro-6-(2-methoxyethoxy)-3-[3-(4-{2-oxa-6-azaspiro[3.4]octane-6-carbonyl}phenyl)-1,2-oxazol-5-yl]-1H-indazole], the IC50 in test [1] (setting [2]) was 0.032 µM; against c-Kit(V654A) (Table 1, 200 μM ATP), 0.00046 µM.
As to `COCCOc1cc2[nH]nc(-c3cc(-c4ccc(C(=O)N5CCOC[C@H]5CO)cc4)no3)c2cc1Cl` [A67, (4-{5-[5-chloro-6-(2-methoxy-ethoxy)-1H-indazol-3-yl]-isoxazol-3-yl}-phenyl)-((R)-3-hydroxymethyl-morpholin-4-yl)-methanone], the IC50 in test [1] (setting [2]) is 0.094 µM; at c-Kit(V654A) (Table 1, 200 μM ATP) it was 0.00088 µM.
Taken in the same sequence, the figures for `COCCOc1cc2[nH]nc(-c3cc(-c4ccc(C(=O)N5CC(N6CCN(C)CC6)C5)cc4)no3)c2cc1Cl` [A65, (4-{5-[5-chloro-6-(2-methoxy-ethoxy)-1H-indazol-3-yl]-isoxazol-3-yl}-phenyl)-[3-(4-methyl-piperazin-1-yl)-azetidin-1-yl]-methanone] were 0.16 µM and 0.00089 µM.
Taken in the same sequence, the figures for `COCCOc1cc2[nH]nc(-c3cc(-c4ccc(C(=O)N5CC(O)(c6ccncc6)C5)cc4)no3)c2cc1F` [A206, 1-(4-{5-[5-fluoro-6-(2-methoxyethoxy)-1H-indazol-3-yl]-1,2-oxazol-3-yl}benzoyl)-3-(pyridin-4-yl)azetidin-3-ol] were 0.079 µM and 0.00067 µM.
On to `COCCOc1cc2[nH]nc(-c3cc(-c4ccc(N5CCOCC5=O)cc4)no3)c2cc1F` [A139, 4-(4-{5-[5-fluoro-6-(2-methoxyethoxy)-1H-indazol-3-yl]-1,2-oxazol-3-yl}phenyl)morpholin-3-one], for which the IC50 in test [1] (setting [2]) is 0.068 µM; at c-Kit(V654A) (Table 1, 200 μM ATP), 0.0012 µM.
As for `COCCOc1cc2[nH]nc(-c3cc(-c4ccc(C(=O)N5CCN(CC6CC6)CC5)cc4)no3)c2cc1F` [A179, 3-(3-{4-[4-(cyclopropylmethyl)piperazine-1-carbonyl]phenyl}-1,2-oxazol-5-yl)-5-fluoro-6-(2-methoxyethoxy)-1H-indazole], the IC50 in test [1] (setting [2]) amounted to 0.085 µM; at c-Kit(V654A) (Table 1, 200 μM ATP), 0.00059 µM.
Taken in the same sequence, the figures for `COCCOc1cc2[nH]nc(-c3cc(-c4ccc(C(=O)N5C[C@H]6CNC[C@H]6C5)cc4)no3)c2cc1F` [A223, 3-(3-{4-[(cis)-octahydropyrrolo[3,4-c]pyrrole-2-carbonyl]phenyl}-1,2-oxazol-5-yl)-5-fluoro-6-(2-methoxyethoxy)-1H-indazole] were 0.38 µM and 0.0011 µM.
On to `COCCOc1cc2[nH]nc(-c3cc(-c4ccc(C(=O)N5CCC[C@H]5C(C)(C)O)cc4)no3)c2cc1F` [A5, 2-[(2S)-1-(4-{5-[5-fluoro-6-(2-methoxyethoxy)-1H-indazol-3-yl]-1,2-oxazol-3-yl}benzoyl)pyrrolidin-2-yl]propan-2-ol], for which the IC50 is 0.02 µM in test [1] (setting [2]) and 0.00055 µM against c-Kit(V654A) (Table 1, 200 μM ATP).
Taken in the same sequence, the figures for `COCCOc1cc2[nH]nc(-c3cc(-c4ccc(C(=O)N5CC(N6CCOCC6)C5)nc4)no3)c2cc1F` [A69, (5-{5-[5-fluoro-6-(2-methoxy-ethoxy)-1H-indazol-3-yl]-isoxazol-3-yl}-pyridin-2-yl)-(3-morpholin-4-yl-azetidin-1-yl)-methanone] were 0.19 µM and 0.02 µM.
Regarding `COCCOc1cc2[nH]nc(-c3cc(-c4ccc(C(=O)N5CCC56COC6)cc4)no3)c2cc1F` [A112, 5-fluoro-6-(2-methoxyethoxy)-3-[3-(4-{6-oxa-1-azaspiro[3.3]heptane-1-carbonyl}phenyl)-1,2-oxazol-5-yl]-1H-indazole], the IC50 in test [1] (setting [2]) was determined as 0.032 µM; on c-Kit(V654A) (Table 1, 200 μM ATP), 0.0013 µM.
On to `COCCOc1cc2[nH]nc(-c3cc(-c4ccc(C(=O)N5CC(N6CCOCC6)C5)cc4)no3)c2cc1F` [A53, 5-fluoro-6-(2-methoxyethoxy)-3-(3-{4-[3-(morpholin-4-yl)azetidine-1-carbonyl]phenyl}-1,2-oxazol-5-yl)-1H-indazole], for which the IC50 was found to be 0.015 µM in test [1] (setting [2]) and 0.0014 µM at c-Kit(V654A) (Table 1, 200 μM ATP).
As to `COCCOc1cc2[nH]nc(-c3cn(-c4ccc(C(=O)N5CC(N6CCOCC6)C5)c(C)c4)nn3)c2cc1F` [reference compound], the IC50 in test [1] (setting [3]) was 0.87 µM; against c-Kit(V654A) (setting [3]) it was 0.013 µM.
Consider `COCCOc1cc2[nH]nc(-c3cc(-c4ccc(C(=O)N5CCS(=O)(=O)CC5)cc4)no3)c2cc1F` [A30, 4-(4-{5-[5-fluoro-6-(2-methoxyethoxy)-1H-indazol-3-yl]-1,2-oxazol-3-yl}benzoyl)-1lambda6-thiomorpholine-1,1-dione], for which the IC50 in test [1] (setting [2]) was found to be 0.056 µM; against c-Kit(V654A) (Table 1, 200 μM ATP) it was 0.00073 µM.
Taken in the same sequence, the figures for `Cn1cc(-c2ccc3c(-c4cc(-c5ccc(C(=O)N6CCC[C@@H]6C(C)(C)O)cc5)no4)n[nH]c3c2)cn1` [A8, 2-[(2R)-1-(4-{5-[6-(1-methyl-1H-pyrazol-4-yl)-1H-indazol-3-yl]-1,2-oxazol-3-yl}benzoyl)pyrrolidin-2-yl]propan-2-ol] were 0.28 µM and 0.02 µM.
Taken in the same sequence, the figures for `COCCOc1cc2[nH]nc(-c3cc(-c4ccc(C(=O)N(C)C)nc4)no3)c2cc1F` [A99, 5-{5-[5-fluoro-6-(2-methoxy-ethoxy)-1H-indazol-3-yl]-isoxazol-3-yl}-pyridine-2-carboxylic acid dimethylamide] were 0.67 µM and 0.0069 µM.
Taken in the same sequence, the figures for `COCCOc1cc2[nH]nc(-c3cc(-c4ccc(C(=O)N5C[C@H]6COC[C@H]6C5)cc4)no3)c2cc1F` [A202, 3-(3-{4-[(cis)-hexahydro-1H-furo[3,4-c]pyrrole-5-carbonyl]phenyl}-1,2-oxazol-5-yl)-5-fluoro-6-(2-methoxyethoxy)-1H-indazole] were 0.019 µM and 0.0011 µM.
Regarding `COCCOc1cc2[nH]nc(-c3cc(-c4ccc(C(=O)N5CC(c6ccccn6)C5)cc4)no3)c2cc1F` [A149, 5-fluoro-6-(2-methoxyethoxy)-3-(3-{4-[3-(pyridin-2-yl)azetidine-1-carbonyl]phenyl}-1,2-oxazol-5-yl)-1H-indazole], the IC50 in test [1] (setting [2]) is 0.046 µM; against c-Kit(V654A) (Table 1, 200 μM ATP), 0.00069 µM.
Taken in the same sequence, the figures for `COCCOc1cc2[nH]nc(-c3cc(-c4ccc(NC(C)=O)cc4)no3)c2cc1F` [A18, N-(4-{5-[5-fluoro-6-(2-methoxyethoxy)-1H-indazol-3-yl]-1,2-oxazol-3-yl}phenyl)acetamide] were 0.16 µM and 0.0082 µM.
Taken in the same sequence, the figures for `COCCOc1cc2[nH]nc(-c3cc(-c4ccc(C(=O)N5CCNCC5)cc4)no3)c2cc1F` [A46, 5-fluoro-6-(2-methoxyethoxy)-3-{3-[4-(piperazine-1-carbonyl)phenyl]-1,2-oxazol-5-yl}-1H-indazole] were 0.058 µM and 0.00096 µM.
